Patent publication US12517131B2, “Methods for labeling eukaryotic cells from a multicellular organism as well as for treating and/or diagnosing a cancer using modified monosaccharide compounds” (DIAMIDEX, priority 2019, dated 2026)

Assays:
Assay in all cases: Comparison of labeling of Ara-N3 and KDO-N3
Type in all cases: cell-based, human
Details in all cases: same conditions as in example 2
HeLa = test system: HeLa
Raw = test system: Raw
Macrophages = test system: Macrophages

Measured: labelling of cells (fluorescence intensity)

[N-]=[N+]=NC[C@@H](O)[C@@H](O)[C@H](O)[C@H](O)CC(=O)C(=O)O [KDO-N3, 8-azido-3,8-dideoxy-D-manno-octulosonic acid]
not labelled: all assays above
